Results on 37 compounds are retold here after ChEMBL document CHEMBL4483862, “Open-source discovery of chemical leads for next-generation chemoprotective antimalarials” (2018).

This test relates to Plasmodium berghei. In words: Luciferase/luciferin-expressing antifolate-resistant parasites were used to infect a culture of HepG2 cells that were pre-incubated with compounds. Infected hepatocytes emit light due to the luciferase reaction. Assay results are presented as the percent inhibition of light emission compared to control. […]. Format: functional. The conditions noted are these: sporozoite; for IC90: read-out: LUCIFERASE INFECTION ASSAY - IC90.

Where [1] appears, read: read-out: LUCIFERASE INFECTION ASSAY - IC50.

Turning to `CC(C)N1C(=O)/C(=N\NC(=S)NC2CCCCC2)c2ccccc21`, the 90% effect concentration (IC90) is over 10 µM. Also, the concentration for half-maximal inhibition (IC50) (FFLUC_HILL_SLOPE 3.74, FFLUC_R_SQUARED 0.413, HEPG2TOX_HILL_SLOPE 6.6, HEPG2TOX_R_SQUARED 0.125, read-out: LUCIFERASE INFECTION ASSAY - IC50) is over 10 µM.
For `O=S(=O)(/C=C/c1ccccc1)N1CCCC(c2nc3ccccc3s2)C1` (centres undefined), the IC90 was over 10 µM. Further, under “PBLUC_HILL_SLOPE 2.87, PBLUC_R_SQUARED 0.652, read-out: LUCIFERASE INFECTION ASSAY - IC50”, the IC50 was over 10 µM.
Turning to `CCN(CC)S(=O)(=O)c1ccc(C(=O)Nc2ccc(C34CC5CC(CC(O)(C5)C3)C4)cc2)cc1`, the IC90 was over 10 µM. In addition, the concentration for half-maximal inhibition (IC50) under setting [1] is over 10 µM.
Take `Cc1cc(C(=O)NCc2nnc3ccccn23)c(C)n1C1CCCCC1`: the IC90 was 6.61 µM. Moreover, the half-inhibitory concentration (IC50) (FFLUC_HILL_SLOPE 1.4, FFLUC_R_SQUARED 0.0106, PBLUC_HILL_SLOPE 1.41, PBLUC_R_SQUARED 0.709, read-out: LUCIFERASE INFECTION ASSAY - IC50) was determined as 1.39 µM.
With `c1ccc(Oc2ccc(-c3cnc4cnc(-c5cccnc5)cn34)cc2)cc1`, the IC90 was 6.96 µM. The IC50 under setting [1] was 3 µM.
On the same counts, the results for `O=[N+]([O-])c1ccccc1N1CCN(Cc2nc3ccccc3s2)CC1` are over 10 µM and over 10 µM.
Regarding `CC(C)c1ccc(N2C(=O)C=CC2=O)cc1`, the concentration for an effect of 90% (IC90) is over 15.3 µM. For the same compound, the IC50 (HEPG2TOX_HILL_SLOPE 8.61, HEPG2TOX_R_SQUARED 0.25, PBLUC_HILL_SLOPE 3.82, PBLUC_R_SQUARED 0.327, read-out: LUCIFERASE INFECTION ASSAY - IC50) was 9.69 µM.
On to `COc1ccc(OC)c2c1CN(c1cnn(-c3nc4ccccc4[nH]3)c(=O)c1Cl)CC2O` (centres undefined), for which the IC90 is over 10 µM. For the same compound, under setting [1], the IC50 was over 10 µM.
For the compound `O=C(Nc1ccc2nc(Cc3ccccc3)nn2c1)c1cccc(Cl)c1`, the concentration for an effect of 90% (IC90) worked out at 1.48 µM. Also, where the note is “HEPG2TOX_HILL_SLOPE 2.06, HEPG2TOX_R_SQUARED 0.967, PBLUC_HILL_SLOPE 11.3, PBLUC_R_SQUARED 0.609, read-out: LUCIFERASE INFECTION ASSAY - IC50”, the IC50 amounted to 1.22 µM.
Regarding `COc1ccccc1CN1CCN2C(=O)[C@@H](Cc3ccc(O)cc3)NC(=O)[C@H]2C1`, the IC90 was over 8.34 µM. Also, where the note is “PBLUC_HILL_SLOPE 1.8, PBLUC_R_SQUARED 0.229, read-out: LUCIFERASE INFECTION ASSAY - IC50”, the IC50 was 4.45 µM.
In the case of `CCOC(=O)c1c(C)[nH]c(/C(C)=N/Nc2nc3ccccc3[nH]2)c1C`, the concentration for an effect of 90% (IC90) was over 10 µM. Further, the IC50 (HEPG2TOX_HILL_SLOPE 6.05, HEPG2TOX_R_SQUARED 0.279, PBLUC_HILL_SLOPE 4.56, PBLUC_R_SQUARED 0.397, read-out: LUCIFERASE INFECTION ASSAY - IC50) is 8.41 µM.
Turning to `CCc1c(C)[nH]c2c(-c3ccc(Cl)cc3)c(C)nn2c1=O`, the IC90 was over 10.9 µM. For the same compound, the IC50 (PBLUC_HILL_SLOPE 2.9, PBLUC_R_SQUARED 0.859, read-out: LUCIFERASE INFECTION ASSAY - IC50) amounted to 6.48 µM.
`Cc1ccc(-c2cnc3ccc(NC4CCOCC4)nn23)cc1C`: the IC90 turned out to be 4.53 µM. The IC50 (HEPG2TOX_HILL_SLOPE 2.16, HEPG2TOX_R_SQUARED 0.752, PBLUC_HILL_SLOPE 1.94, PBLUC_R_SQUARED 0.563, read-out: LUCIFERASE INFECTION ASSAY - IC50) turned out to be 1.46 µM.
As for `Cc1c(C(=O)NCCc2ccc3c(c2)OCCO3)cnn1-c1ccc(Cl)cc1`, the IC90 is over 2 µM. For the same compound, the IC50 under setting [1] is over 2 µM.
As to `Cc1ccc2c(COC(=O)[C@@H]3CCCN3C(=O)c3cccs3)cc(=O)oc2c1`, the 90% effect concentration (IC90) was over 10 µM. Under setting [1], the half-maximal inhibitory concentration (IC50) is over 10 µM.
As to `COc1ccc2c(=O)c(C(=O)N(C)Cc3ccc(F)c(F)c3)c[nH]c2c1`, the concentration for an effect of 90% (IC90) worked out at 4.7 µM. For the same compound, where the note is “PBLUC_HILL_SLOPE 1.79, PBLUC_R_SQUARED 0.658, read-out: LUCIFERASE INFECTION ASSAY - IC50”, the IC50 was determined as 1.38 µM.
Take `C#CCNS(=O)(=O)c1cccc(C(=O)Nc2nc(C)c(C)s2)c1`: the concentration for an effect of 90% (IC90) is over 10 µM. Under setting [1], the IC50 was over 10 µM.
In the case of `O=C(NCCO)c1cccc(-c2cn3c(-c4ccc(Cl)cc4)cnc3cn2)c1`, the IC90 stood at 3.17 µM. The IC50 (HEPG2TOX_HILL_SLOPE 8.8, HEPG2TOX_R_SQUARED 0.456, PBLUC_HILL_SLOPE 3.73, PBLUC_R_SQUARED 0.895, read-out: LUCIFERASE INFECTION ASSAY - IC50) worked out at 1.76 µM.
For `Nc1nccnc1C(=O)NNC(=O)c1cccc(C(F)(F)F)c1`, the concentration for an effect of 90% (IC90) was 7.02 µM. For the same compound, where the note is “HEPG2TOX_HILL_SLOPE 7.79, HEPG2TOX_R_SQUARED 0.494, PBLUC_HILL_SLOPE 4.8, PBLUC_R_SQUARED 0.215, read-out: LUCIFERASE INFECTION ASSAY - IC50”, the IC50 is 4.44 µM.
`O=C1COc2ccc(-c3csc(Nc4ccccc4C(F)(F)F)n3)cc2N1`: the IC90 was over 10 µM. Besides, the IC50 under setting [1] was 5.54 µM.
Take `CC(C)N(c1ccccc1)c1ccc(NC(=O)COC(=O)c2ccc(Cl)c(S(=O)(=O)N(Cc3ccccc3)c3ccc(Cl)cc3)c2)cc1`: the concentration for an effect of 90% (IC90) is over 10 µM. Besides, where the note is “FFLUC_HILL_SLOPE 30.3, FFLUC_R_SQUARED 0.617, PBLUC_HILL_SLOPE 4.64, PBLUC_R_SQUARED 0.334, read-out: LUCIFERASE INFECTION ASSAY - IC50”, the concentration for half-maximal inhibition (IC50) was determined as 9.19 µM.
For `Cc1nn(-c2ccccc2)c(C)c1CN(C)S(=O)(=O)c1ccc(C#N)cc1`, the IC90 came out at 0.36 µM. Further, the IC50 (PBLUC_HILL_SLOPE 18, PBLUC_R_SQUARED 0.548, read-out: LUCIFERASE INFECTION ASSAY - IC50) is 0.318 µM.
Regarding `CC(C)(C)c1ccc(C(=O)NNC(=S)Nc2ccc(Cl)cc2)cc1`, the concentration for an effect of 90% (IC90) is 8.97 µM. Further, for the setting “PBLUC_HILL_SLOPE 14.6, PBLUC_R_SQUARED 0.46, read-out: LUCIFERASE INFECTION ASSAY - IC50”, the half-inhibitory concentration (IC50) amounted to 7.71 µM.
For the compound `CCC(C)c1ccc(NC(=O)CN(Cc2ccccc2)S(=O)(=O)c2ccc(C)c(C)c2)cc1` (centres undefined), the concentration for an effect of 90% (IC90) is over 10 µM. Besides, under setting [1], the IC50 is over 10 µM.
Take `O=C(Nc1nc2c(s1)CCCC2)c1c[nH]c(=S)n1-c1ccccc1`: the concentration for an effect of 90% (IC90) was over 10 µM. For the same compound, under setting [1], the 50% inhibitory concentration (IC50) is over 10 µM.
On to `CN=C1NN=C(c2cc(C)n(-c3ccc(OC)cc3)c2C)CS1`, for which the IC90 is over 10 µM. The IC50 (PBLUC_HILL_SLOPE 1.15, PBLUC_R_SQUARED 0.417, read-out: LUCIFERASE INFECTION ASSAY - IC50) is over 10 µM.
Turning to `COc1cc(-c2cccc(Nc3cccc(OC(F)(F)C(F)F)c3)n2)cc(OC)c1OC`, the concentration for an effect of 90% (IC90) is over 7.29 µM. Further, under setting [1], the concentration for half-maximal inhibition (IC50) was over 7.29 µM.
Turning to `COc1cccc(N2CCN(CC(=O)c3c[nH]c4ccccc34)CC2C)c1` (centres undefined), the IC90 is over 9.08 µM. In addition, the concentration for half-maximal inhibition (IC50) (PBLUC_HILL_SLOPE 1.43, PBLUC_R_SQUARED 0.653, read-out: LUCIFERASE INFECTION ASSAY - IC50) is 4.63 µM.
With `C=CCN(c1ccc(Cl)cc1)S(=O)(=O)c1cccc(C(=O)C(C#N)c2nc3ccccc3n2C)c1` (centres undefined), the concentration for an effect of 90% (IC90) amounted to 3.88 µM. The half-inhibitory concentration (IC50) (HEPG2TOX_HILL_SLOPE 10.3, HEPG2TOX_R_SQUARED 0.536, PBLUC_HILL_SLOPE 9.9, PBLUC_R_SQUARED 0.166, read-out: LUCIFERASE INFECTION ASSAY - IC50) came out at 3.1 µM.
For the compound `Cn1ncc2c(NCc3ccc(-c4ccc(Cl)cc4)o3)ncnc21`, the IC90 is 0.56 µM. For the same compound, the IC50 (HEPG2TOX_HILL_SLOPE 0.521, HEPG2TOX_R_SQUARED 0.423, PBLUC_HILL_SLOPE 3.64, PBLUC_R_SQUARED 0.888, read-out: LUCIFERASE INFECTION ASSAY - IC50) was 0.306 µM.
As to `CCCn1c(NC(=O)c2ccc(CS(=O)(=O)c3ccccc3)o2)nc2ccccc21`, the IC90 came out at 4.08 µM. Moreover, under “HEPG2TOX_HILL_SLOPE 2.08, HEPG2TOX_R_SQUARED 0.973, PBLUC_HILL_SLOPE 1.97, PBLUC_R_SQUARED 0.429, read-out: LUCIFERASE INFECTION ASSAY - IC50”, the half-inhibitory concentration (IC50) turned out to be 1.34 µM.
With `CC1CC(C)CN(Cc2nc(=O)c3c(-c4ccc(Cl)cc4)csc3[nH]2)C1` (centres undefined), the IC90 was 6.66 µM. Further, the 50% inhibitory concentration (IC50) (FFLUC_HILL_SLOPE 12.3, FFLUC_R_SQUARED 0.735, PBLUC_HILL_SLOPE 4.47, PBLUC_R_SQUARED 0.339, read-out: LUCIFERASE INFECTION ASSAY - IC50) stood at 4.07 µM.
With `CCOC(=O)c1c(-c2ccccc2)oc2ccc(OCC(O)CNCCN(C)C)cc12` (centres undefined), the concentration for an effect of 90% (IC90) was over 10 µM. Under “PBLUC_HILL_SLOPE 9.38, PBLUC_R_SQUARED 0.614, read-out: LUCIFERASE INFECTION ASSAY - IC50”, the IC50 came to 8.91 µM.
On to `Nc1c(C(=O)c2ccccc2)sc(Nc2ccccc2)c1C(=O)Nc1ccc(SC(F)F)cc1`, for which the concentration for an effect of 90% (IC90) is 1.28 µM. The IC50 (HEPG2TOX_HILL_SLOPE 1.49, HEPG2TOX_R_SQUARED 0.921, PBLUC_HILL_SLOPE 11.4, PBLUC_R_SQUARED 0.694, read-out: LUCIFERASE INFECTION ASSAY - IC50) turned out to be 1.05 µM.
`CCOc1cc2ncc(C#N)c(Nc3ccc(F)c(Cl)c3)c2cc1N`: the 90% effect concentration (IC90) stood at 6.3 µM. Besides, the IC50 (HEPG2TOX_HILL_SLOPE 1.25, HEPG2TOX_R_SQUARED 0.941, PBLUC_HILL_SLOPE 3.96, PBLUC_R_SQUARED 0.532, read-out: LUCIFERASE INFECTION ASSAY - IC50) stood at 3.61 µM.
For the compound `c1ccc2c(C3=NN=C(NC4CCCCC4)SC3)c[nH]c2c1`, the IC90 was over 10 µM. The half-maximal inhibitory concentration (IC50) under setting [1] was over 10 µM.
Consider `CC(Nc1ncnc2sccc12)c1ccc(F)cc1` (centres undefined), for which the IC90 stood at 8.6 µM. Further, for the setting “HEPG2TOX_HILL_SLOPE 0.743, HEPG2TOX_R_SQUARED 0.939, PBLUC_HILL_SLOPE 0.968, PBLUC_R_SQUARED 0.762, read-out: LUCIFERASE INFECTION ASSAY - IC50”, the IC50 was 0.889 µM.

Broadly, the IC50 is the concentration needed to halve the response being measured. For orientation: IC90 means the point of the concentration-response curve where the effect stands at 90%.
